Patent US20250059184A1 (priority 2021, published 2025)

Tests used:
5HT2A sensor [1] = conditions: cited from earlier work
5HT2A sensor [2] = conditions: cited from earlier work; remark: listed apart in the source
mice = conditions: mouse, in vivo; cited from earlier work
5-HT2A [3] = target: T1, 5-HT2A (Homo sapiens, UniProt P28223); test: Serotonin 5-HT2A in vitro cellular IPOne agonism assay (HTRF); format: cell-based; design: host or cells: CHO-K1; conditions: CHO-K1 cells, agonist mode
Experimental: (§1) Serotonin 5-HT2A In Vitro Cellular IPOne Agonism Assay. The 5-HT2A IPOne HTRF assay was performed at Epics Therapeutics S.A. (Belgium, FAST-0505I) using conventional methods. Briefly, CHO-K1 cells expressing human recombinant 5-HT2A receptor grown to mid-log phase in culture media without antibiotics were detached with PBS-EDTA, centrifuged, and resuspended in medium without antibiotics buffer. 20,000 cells were distributed in a 96 well plate and incubated overnight at 37° C. with 5% Co2.
For agonist testing, the medium was removed and 20 μl of assay buffer plus 20 μl of test compound or reference agonist were added in each well. The plate was incubated for 60 min. at 37° C. with 5% CO2.
(§2) After addition of the lysis buffer containing IP1-d2 and anti-IP1 cryptate detection reagents, plates were incubated 1-hour at room temperature, and fluorescence ratios were measured according to the manufacturer specification, with the HTRF kit.

5-HT2A [4] = target: T1, 5-HT2A; test: Serotonin 5-HT2A in vitro cellular IPOne antagonism assay (HTRF); format: cell-based; design: host or cells: CHO-K1; conditions: CHO-K1 cells, reference agonist α-Me-5HT; read-out: 5-HT2A IPOne Antagonist Activity
Experimental: as §1, with “Antagonism” for “Agonism”, “FAST-O0505) in antagonism mode” for “FAST-0505I)”
For antagonist testing, a reference agonist α-Me-5HT was added and fluorescence signal monitored for several minutes, followed by addition of 20 μl of assay buffer plus 20 μl of test compound or reference antagonist ketanserin, in each well. The plate was incubated for 60 min. at 37° C. with 5% CO2.
as §2

5-HT2A [5] = target: T1, 5-HT2A; test: Serotonin 5-HT2A in vitro radioligand binding competition assay ([3H]-DOI); design: purchased Epics Therapeutics S.A. (Belgium) FAST-0505B; conditions: [3H]-DOI radiotracer, membrane extracts
Experimental: Serotonin 5-HT2A In Vitro Radioligand Binding Competition Assay. The 5-HT2A radioligand binding competition assay was performed at Epics Therapeutics S.A. (Belgium, FAST-0505B) using conventional methods. Briefly, competition binding was performed in duplicate in the wells of a 96 well plate (Master Block, Greiner, 786201) containing binding buffer (optimized for each receptor), membrane extracts (amount of protein/well optimized for each receptor), radiotracer [^3H]-DOI (final concentration optimized for each receptor) and test compound. Nonspecific binding was determined by co-incubation with 200-fold excess of cold competitor. The samples were incubated in a final volume of 0.1 ml at a temperature and for a duration optimized for each receptor and then filtered over filter plates. Filters were washed six times with 0.5 ml of ice-cold washing buffer (optimized for each receptor) and 50 μl of Microscint 20 (Packard) were added in each well. The plates were incubated 15 min on an orbital shaker and then counted with a TopCount™ for 1 min/well.

T1 sequence (P28223 whole entry): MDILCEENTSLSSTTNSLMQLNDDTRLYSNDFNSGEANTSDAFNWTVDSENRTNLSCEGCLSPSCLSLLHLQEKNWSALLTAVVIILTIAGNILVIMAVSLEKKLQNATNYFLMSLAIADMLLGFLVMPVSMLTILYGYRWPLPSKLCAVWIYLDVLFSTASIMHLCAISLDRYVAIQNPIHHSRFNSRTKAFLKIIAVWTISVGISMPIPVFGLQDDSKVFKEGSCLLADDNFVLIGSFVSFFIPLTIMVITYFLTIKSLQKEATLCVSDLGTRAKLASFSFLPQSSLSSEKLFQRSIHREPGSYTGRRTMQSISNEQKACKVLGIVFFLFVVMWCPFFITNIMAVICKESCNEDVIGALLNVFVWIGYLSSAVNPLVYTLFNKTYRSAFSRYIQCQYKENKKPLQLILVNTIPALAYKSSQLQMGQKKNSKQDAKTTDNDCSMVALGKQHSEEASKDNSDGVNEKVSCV

For R-MDMA, the “activation of the 5HT2A sensor assay in agonist mode” value (“activation of the 5HT2A sensor assay” for short) (5HT2A sensor [1]) is listed as “do not activate the 5HT2A sensor assay in agonist mode”.

For `O=C(c1ccc(F)cc1)C1CCN(CCn2c(=O)[nH]c3ccccc3c2=O)CC1` [Ketanserin], the “activation of the 5HT2A sensor assay” value (5HT2A sensor [1]) is listed as “do not activate the 5HT2A sensor assay in agonist mode” and the “competition with 5-HT in the 5HT2A sensor assay in antagonist mode” value (“competition with 5-HT” below) (5HT2A sensor [2]) is listed as “can compete with 5HT binding to 5HT2A”.

In the case of 5-MeO-DMT [Compound 5-MeO-DMT], the “head-twitch response (HTR)” value (mice) is listed as “robust, dose-dependent head-twitch response” and the “activation of the 5HT2A sensor assay” value (5HT2A sensor [1]) is listed as “activate the 5HT2A sensor assay in agonist mode”.

For 6-MeO-DMT [Compound 6-MeO-DMT], the “head-twitch response (HTR)” value (mice) is given as “does not produce a HTR”, the “activation of the 5HT2A sensor assay” value (5HT2A sensor [1]) is given as “do not activate the 5HT2A sensor assay in agonist mode” and the “competition with 5-HT” value (5HT2A sensor [2]) is given as “compete off 5-HT”.

For 6-F-DET [Compound 6-F-DET], the “activation of the 5HT2A sensor assay” value (5HT2A sensor [1]) is given as “do not activate the 5HT2A sensor assay in agonist mode” and the “competition with 5-HT” value (5HT2A sensor [2]) is given as “can compete with 5HT binding to 5HT2A”.

In the case of L-MDMA, the “activation of the 5HT2A sensor assay” value (5HT2A sensor [1]) is listed as “do not activate the 5HT2A sensor assay in agonist mode”.

For `CN(C)CCc1ncc2ccccn12` [Compound 14, 2-(Imidazo[1,5-a]pyridin-3-yl)-N,N-dimethylethan-1-amine], the EC50 (5-HT2A [3]) was > 10 µM, the IC50 (5-HT2A [4]) was 1 to 10 µM and the IC50 (5-HT2A [5]) was 1 to 10 µM.

For `CC(C)(N)Cc1ncc2ccccn12` [Compound 6, 1-(imidazo [1,5-a]pyridin-3-yl)-2-methylpropan-2-amine], the EC50 (5-HT2A [3]) was > 10 µM, the IC50 (5-HT2A [4]) was 0.101 to 1 µM and the IC50 (5-HT2A [5]) was 1 to 10 µM.

With `CN(C)C(C)(C)Cc1ncc2ccccn12` [Compound 19, 1-(imidazo [1,5-a]pyridin-3-yl)-N,N,2-trimethylpropan-2-amine] the EC50 (5-HT2A [3]) was > 10 µM, the IC50 (5-HT2A [4]) was 1 to 10 µM and the IC50 (5-HT2A [5]) was 1 to 10 µM.

In the case of `Cc1ccn2c(CC(C)N)ncc2c1` (centres unmarked) [Compound 9, 1-(7-methylimidazo[1,5-a]pyridin-3-yl)propan-2-amine], the EC50 (5-HT2A [3]) is reported as 1 to 10 µM, the IC50 (5-HT2A [4]) is reported as > 10 µM and the IC50 (5-HT2A [5]) is reported as 1 to 10 µM.

With `CC(Cc1ncc2cc(F)ccn12)N(C)C` (centres unmarked) [Compound 17, 1-(7-fluoroimidazo[1,5-a]pyridin-3-yl)-N,N-dimethylpropan-2-amine] the EC50 (5-HT2A [3]) was > 10 µM, the IC50 (5-HT2A [4]) was 0.101 to 1 µM and the IC50 (5-HT2A [5]) was 0.101 to 1 µM.

For `CC(Cc1ncn2ccccc12)N(C)C` (centres unmarked) [Compound 44, 1-(imidazo [1,5-a]pyridin-1-yl)-N,N-dimethylpropan-2-amine], the EC50 (5-HT2A [3]) was > 10 µM, the IC50 (5-HT2A [4]) was 0.101 to 1 µM and the IC50 (5-HT2A [5]) was 1 to 10 µM.

In the case of `c1ccn2c(C3CCNC3)ncc2c1` (centres unmarked) [Compound 12, 3-(Pyrrolidin-3-yl)imidazo[1,5-a]pyridine], the EC50 (5-HT2A [3]) is reported as > 10 µM, the IC50 (5-HT2A [4]) is reported as 1 to 10 µM and the IC50 (5-HT2A [5]) is reported as 1 to 10 µM.

For `CC(Cc1ncc2ccccn12)N1CCCC1` (centres unmarked) [Compound 27, 3-(2-(pyrrolidin-1-yl)propyl)imidazo[1,5-a]pyridine], the EC50 (5-HT2A [3]) was > 10 µM, the IC50 (5-HT2A [4]) was 1 to 10 µM and the IC50 (5-HT2A [5]) was 1 to 10 µM.

With `CC(Cc1ncc2ccccn12)N(C)C` (centres unmarked) [Compound 15, 1-(imidazo [1,5-a]pyridin-3-yl)-N,N-dimethylpropan-2-amine] the EC50 (5-HT2A [3]) was > 10 µM, the IC50 (5-HT2A [4]) was 1 to 10 µM and the IC50 (5-HT2A [5]) was 1 to 10 µM.

With `CN(C)CCc1ncn2ccccc12` [Compound 43, 2-(imidazo [1,5-a]pyridin-1-yl)-N,N-dimethylethan-1-amine] the EC50 (5-HT2A [3]) was > 10 µM, the IC50 (5-HT2A [4]) was 0.101 to 1 µM and the IC50 (5-HT2A [5]) was 1 to 10 µM.

For `CN(C)CCc1c[nH]c2ccccc12` [DMT, N,N-dimethyltryptamine], the “activation of the 5HT2A sensor assay” value (5HT2A sensor [1]) is listed as “activate the 5HT2A sensor assay in agonist mode”.

For BOL148, the “activation of the 5HT2A sensor assay” value (5HT2A sensor [1]) is listed as “do not activate the 5HT2A sensor assay in agonist mode” and the “competition with 5-HT” value (5HT2A sensor [2]) is listed as “can compete with 5HT binding to 5HT2A”.
